{"source": "patent US20210324359A1", "about": "“USE OF GRAM-NEGATIVE LYSIN-ANTIMICROBIAL PEPTIDE (AMP) POLYPEPTIDE CONSTRUCTS IN TREATING ENDOCARDITIS” (priority 2020, published 2021)", "key": {"[1]": {"test_system": "P. aeruginosa PA20 recovered from rabbit lung homogenates", "format": "cell-based, Pseudomonas aeruginosa", "conditions": "n=48"}, "[2]": {"test_system": "P. aeruginosa isolate CFS 1558 (PA20)", "format": "in vivo", "description": "A rabbit pulmonary model was used to assess the efficacy of the GN370 lysin alone and in combination with an antibiotic (meropenem). Initially, rabbits were infected intratracheally with P. aeruginosa isolate CFS 1558 (PA20) (3×10^9 CFU). Treatment commenced 6 hours post-infection."}, "[3]": {"test_system": "15 P. aeruginosa isolates", "assay": "MIC of GN370 in dog, human, rabbit and rat serum and CAAT; meropenem in CAMHB (Table 33)", "format": "cell-based, Pseudomonas aeruginosa", "conditions": "Pseudomonas aeruginosa, CAMHB"}}, "note": "Read-outs that look alike come from different tables or passages of the source.", "data": [{"compound": "C[C@@H](O)[C@H]1C(=O)N2C(C(=O)O)=C(S[C@@H]3CN[C@H](C(=O)N(C)C)C3)[C@H](C)[C@H]12", "note": "[Meropenem, meropenem, reference compound]", "values": [{"measurement": "number of isolates with Meropenem MIC […] μg/mL", "setting": "[1]; isolates from GN370 (3 mg/kg) + Meropenem (20 mg/kg) group", "value": 48}, {"measurement": "number of isolates with Meropenem MIC […] μg/mL", "setting": "[1]; isolates from GN370 (3 mg/kg) group", "value": 48}, {"measurement": "number of isolates with Meropenem MIC […] μg/mL", "setting": "[1]; isolates from GN370 (10 mg/kg) + Meropenem (20 mg/kg) group", "value": 48}, {"measurement": "number of isolates with Meropenem MIC […] μg/mL", "setting": "[1]; isolates from GN370 (10 mg/kg) group", "value": 48}, {"measurement": "number of isolates with Meropenem MIC […] μg/mL", "setting": "[1]; isolates from GN370 (30 mg/kg) + Meropenem (20 mg/kg) group", "value": 48}, {"measurement": "number of isolates with Meropenem MIC […] μg/mL", "setting": "[1]; isolates from GN370 (30 mg/kg) group", "value": 48}, {"measurement": "number of isolates with Meropenem MIC […] μg/mL", "setting": "[1]; isolates from Meropenem (20 mg/kg) group", "value": 48}, {"measurement": "number of isolates with Meropenem MIC […] μg/mL", "setting": "[1]; isolates from Pre-treatment control group", "value": 48}, {"measurement": "number of isolates with Meropenem MIC […] μg/mL", "setting": "[1]; isolates from Vehicle control group", "value": 48}, {"measurement": "decrease of mean bacterial density in lungs", "setting": "[2]; agent alone, compared to the starting CFU and the vehicle control group", "value": "about 2 log10 CFU/g"}, {"measurement": "Bacterial burden, Kidneys", "setting": "[2]; meropenem 20 mg/kg", "value": "3.92 ± 0.63", "unit": "log10 CFU/g"}, {"measurement": "Bacterial burden, Lung 1", "setting": "[2]; meropenem 20 mg/kg", "value": "5.80 ± 0.88", "unit": "log10 CFU/g"}, {"measurement": "Bacterial burden, Lung 2", "setting": "[2]; meropenem 20 mg/kg", "value": "5.98 ± 1.14", "unit": "log10 CFU/g"}, {"measurement": "Bacterial burden, Spleen", "setting": "[2]; meropenem 20 mg/kg", "value": "3.62 ± 0.21", "unit": "log10 CFU/g"}, {"measurement": "Log10 CFU/g of vegetation", "setting": "[2]; rabbit lung, Meropenem 20 mg/kg", "value": "6.12 ± 0.89", "unit": "Log10 CFU/g"}, {"measurement": "MIC", "setting": "[3]; ATCC25668, read-out: MIC Meropenem, strain ATCC 25668", "value": 2, "unit": "µg/mL"}, {"measurement": "MIC", "setting": "[3]; ATCC27853, read-out: MIC Meropenem, strain ATCC 27853", "value": 0.5, "unit": "µg/mL"}, {"measurement": "MIC", "setting": "[3]; PA1, read-out: MIC Meropenem, strain PA1", "value": 32, "unit": "µg/mL"}, {"measurement": "MIC", "setting": "[3]; read-out: MIC Meropenem, strain AR0231", "value": 128, "unit": "µg/mL"}, {"measurement": "MIC", "setting": "[3]; read-out: MIC Meropenem, strain AR0241", "value": "> 256", "unit": "µg/mL"}, {"measurement": "MIC", "setting": "[3]; read-out: MIC Meropenem, strain AR0246", "value": 32, "unit": "µg/mL"}, {"measurement": "MIC", "setting": "[3]; read-out: MIC Meropenem, strain PA2", "value": 16, "unit": "µg/mL"}, {"measurement": "MIC", "setting": "[3]; read-out: MIC Meropenem, strain PA3", "value": 8, "unit": "µg/mL"}, {"measurement": "MIC", "setting": "[3]; read-out: MIC Meropenem, strain PA19", "value": 32, "unit": "µg/mL"}, {"measurement": "MIC", "setting": "[3]; read-out: MIC Meropenem, strain PA20", "value": 32, "unit": "µg/mL"}, {"measurement": "MIC", "setting": "[3]; read-out: MIC Meropenem, strain PA22", "value": 16, "unit": "µg/mL"}, {"measurement": "MIC", "setting": "[3]; read-out: MIC Meropenem, strain PA23", "value": 16, "unit": "µg/mL"}, {"measurement": "MIC", "setting": "[3]; read-out: MIC Meropenem, strain PA24", "value": "> 32", "unit": "µg/mL"}, {"measurement": "MIC", "setting": "[3]; read-out: MIC Meropenem, strain PA27", "value": 1, "unit": "µg/mL"}, {"measurement": "MIC", "setting": "[3]; read-out: MIC Meropenem, strain PA453", "value": 64, "unit": "µg/mL"}]}]}
